Experimental data reported in ChEMBL document CHEMBL3991601, “The target landscape of clinical kinase drugs” (Science, 2017).
The source made the active and inactive calls. For most assays here, no stated cut-off is given here; in the data, actives have a measured Kd and inactives only a lower limit.

Assays:
[1] = molecular target: Tyrosine-protein kinase ABL1 (Homo sapiens, UniProt P00519)
[2] = molecular target: Protein kinase C delta type (Homo sapiens, UniProt Q05655)
[3] = molecular target: Adenylate kinase 2, mitochondrial (Homo sapiens, UniProt P54819)
[4] = molecular target: Tyrosine-protein kinase HCK (Homo sapiens, UniProt P08631)
Tyrosine-protein kinase HCK, sequence (P08631 whole entry): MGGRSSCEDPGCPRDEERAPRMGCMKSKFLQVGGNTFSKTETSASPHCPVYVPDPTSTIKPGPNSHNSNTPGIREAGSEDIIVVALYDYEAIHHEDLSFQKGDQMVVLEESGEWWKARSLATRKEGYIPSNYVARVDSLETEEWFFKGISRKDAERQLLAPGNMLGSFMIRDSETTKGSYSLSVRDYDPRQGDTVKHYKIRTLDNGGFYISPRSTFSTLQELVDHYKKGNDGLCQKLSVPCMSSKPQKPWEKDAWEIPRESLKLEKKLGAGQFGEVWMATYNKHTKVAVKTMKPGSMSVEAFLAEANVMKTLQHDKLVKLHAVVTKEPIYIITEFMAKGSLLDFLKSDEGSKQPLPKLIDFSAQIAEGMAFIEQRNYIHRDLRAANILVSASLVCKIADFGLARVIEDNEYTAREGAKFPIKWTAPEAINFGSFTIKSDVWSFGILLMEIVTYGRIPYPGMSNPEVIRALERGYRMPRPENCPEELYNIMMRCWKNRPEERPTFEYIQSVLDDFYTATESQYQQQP

[5] = molecular target: Tyrosine-protein kinase CSK (Homo sapiens, UniProt P41240)
[6] = molecular target: T1, ATP-dependent RNA helicase DDX1 (Homo sapiens, UniProt Q92499)
T1 sequence (Q92499 whole entry): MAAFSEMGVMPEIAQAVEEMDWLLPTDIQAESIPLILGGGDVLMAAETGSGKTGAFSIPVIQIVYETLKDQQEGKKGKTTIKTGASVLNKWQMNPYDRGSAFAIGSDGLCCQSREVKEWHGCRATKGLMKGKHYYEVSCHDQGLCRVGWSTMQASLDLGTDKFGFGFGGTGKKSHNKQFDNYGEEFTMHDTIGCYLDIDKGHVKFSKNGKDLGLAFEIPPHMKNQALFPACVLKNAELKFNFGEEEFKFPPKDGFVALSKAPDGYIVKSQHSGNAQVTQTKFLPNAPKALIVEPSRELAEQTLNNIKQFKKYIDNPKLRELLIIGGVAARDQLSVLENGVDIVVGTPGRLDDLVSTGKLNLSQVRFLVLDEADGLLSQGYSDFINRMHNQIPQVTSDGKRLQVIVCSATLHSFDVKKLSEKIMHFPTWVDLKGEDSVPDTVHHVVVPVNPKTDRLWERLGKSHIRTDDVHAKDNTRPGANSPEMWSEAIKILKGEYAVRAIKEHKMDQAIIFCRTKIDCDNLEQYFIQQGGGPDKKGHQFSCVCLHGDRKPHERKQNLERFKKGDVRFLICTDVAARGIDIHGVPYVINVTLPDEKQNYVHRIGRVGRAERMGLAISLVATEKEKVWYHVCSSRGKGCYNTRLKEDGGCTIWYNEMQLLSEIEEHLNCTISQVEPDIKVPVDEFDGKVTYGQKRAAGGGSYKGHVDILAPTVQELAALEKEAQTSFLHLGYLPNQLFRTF

[7] = molecular target: T2, Dynamin-like GTPase OPA1, mitochondrial (Homo sapiens, UniProt O60313)
T2 sequence (O60313 whole entry): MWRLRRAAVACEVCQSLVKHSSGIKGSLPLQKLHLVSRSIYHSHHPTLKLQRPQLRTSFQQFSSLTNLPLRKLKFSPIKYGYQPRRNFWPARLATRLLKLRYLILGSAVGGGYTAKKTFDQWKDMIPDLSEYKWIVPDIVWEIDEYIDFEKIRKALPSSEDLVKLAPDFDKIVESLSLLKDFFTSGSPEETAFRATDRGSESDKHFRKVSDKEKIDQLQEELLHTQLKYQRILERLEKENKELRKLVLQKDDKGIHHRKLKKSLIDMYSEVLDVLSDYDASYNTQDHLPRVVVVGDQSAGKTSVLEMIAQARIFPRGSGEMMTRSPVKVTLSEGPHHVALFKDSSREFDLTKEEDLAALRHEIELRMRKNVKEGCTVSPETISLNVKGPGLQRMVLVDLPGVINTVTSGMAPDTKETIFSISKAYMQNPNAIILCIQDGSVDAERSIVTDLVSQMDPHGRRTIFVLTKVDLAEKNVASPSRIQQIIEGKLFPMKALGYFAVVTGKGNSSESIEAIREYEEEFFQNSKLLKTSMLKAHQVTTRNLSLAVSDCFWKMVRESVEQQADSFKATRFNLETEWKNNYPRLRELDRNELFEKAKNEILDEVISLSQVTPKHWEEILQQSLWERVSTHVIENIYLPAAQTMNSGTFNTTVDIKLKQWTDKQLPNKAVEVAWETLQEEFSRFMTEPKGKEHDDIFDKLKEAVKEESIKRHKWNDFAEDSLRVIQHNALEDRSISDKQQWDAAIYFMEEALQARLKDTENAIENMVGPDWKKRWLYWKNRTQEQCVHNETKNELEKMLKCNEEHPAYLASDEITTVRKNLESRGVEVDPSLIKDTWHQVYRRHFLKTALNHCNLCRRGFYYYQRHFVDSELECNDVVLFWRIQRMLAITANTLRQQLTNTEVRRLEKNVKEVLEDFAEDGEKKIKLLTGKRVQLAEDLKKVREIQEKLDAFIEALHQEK

Activin receptor type-1B = molecular target: T3, Activin receptor type-1B (Homo sapiens, UniProt P36896)
T3 sequence (P36896 whole entry): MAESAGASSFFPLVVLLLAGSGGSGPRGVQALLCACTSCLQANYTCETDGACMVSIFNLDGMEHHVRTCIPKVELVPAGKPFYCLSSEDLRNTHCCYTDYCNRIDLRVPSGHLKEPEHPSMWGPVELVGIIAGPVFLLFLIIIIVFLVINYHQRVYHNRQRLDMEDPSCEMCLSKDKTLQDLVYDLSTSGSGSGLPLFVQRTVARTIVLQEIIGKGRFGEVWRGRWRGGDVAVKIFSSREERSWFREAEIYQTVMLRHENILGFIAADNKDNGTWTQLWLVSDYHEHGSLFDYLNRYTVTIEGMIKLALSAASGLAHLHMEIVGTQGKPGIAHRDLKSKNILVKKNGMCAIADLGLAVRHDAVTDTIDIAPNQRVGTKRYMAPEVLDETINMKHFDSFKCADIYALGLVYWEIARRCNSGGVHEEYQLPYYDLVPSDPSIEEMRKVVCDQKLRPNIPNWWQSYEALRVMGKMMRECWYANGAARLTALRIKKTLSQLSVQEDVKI

[8] = molecular target: Mitogen-activated protein kinase 9 (Homo sapiens, UniProt P45984)
Mitogen-activated protein kinase 9, sequence (P45984 whole entry): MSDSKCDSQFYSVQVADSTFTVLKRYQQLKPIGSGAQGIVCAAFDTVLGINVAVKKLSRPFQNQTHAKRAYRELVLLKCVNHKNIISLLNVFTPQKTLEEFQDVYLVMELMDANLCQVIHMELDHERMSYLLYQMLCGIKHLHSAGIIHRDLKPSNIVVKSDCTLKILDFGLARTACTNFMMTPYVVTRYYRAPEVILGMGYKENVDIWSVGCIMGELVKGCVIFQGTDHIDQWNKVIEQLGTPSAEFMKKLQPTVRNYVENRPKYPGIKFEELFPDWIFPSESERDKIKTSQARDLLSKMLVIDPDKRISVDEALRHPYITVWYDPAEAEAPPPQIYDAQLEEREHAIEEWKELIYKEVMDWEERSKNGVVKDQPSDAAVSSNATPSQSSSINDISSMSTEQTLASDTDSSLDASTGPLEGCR

Wee1-like protein kinase = Wee1-like protein kinase (Homo sapiens, UniProt P30291)
Wee1-like protein kinase, sequence (P30291 whole entry): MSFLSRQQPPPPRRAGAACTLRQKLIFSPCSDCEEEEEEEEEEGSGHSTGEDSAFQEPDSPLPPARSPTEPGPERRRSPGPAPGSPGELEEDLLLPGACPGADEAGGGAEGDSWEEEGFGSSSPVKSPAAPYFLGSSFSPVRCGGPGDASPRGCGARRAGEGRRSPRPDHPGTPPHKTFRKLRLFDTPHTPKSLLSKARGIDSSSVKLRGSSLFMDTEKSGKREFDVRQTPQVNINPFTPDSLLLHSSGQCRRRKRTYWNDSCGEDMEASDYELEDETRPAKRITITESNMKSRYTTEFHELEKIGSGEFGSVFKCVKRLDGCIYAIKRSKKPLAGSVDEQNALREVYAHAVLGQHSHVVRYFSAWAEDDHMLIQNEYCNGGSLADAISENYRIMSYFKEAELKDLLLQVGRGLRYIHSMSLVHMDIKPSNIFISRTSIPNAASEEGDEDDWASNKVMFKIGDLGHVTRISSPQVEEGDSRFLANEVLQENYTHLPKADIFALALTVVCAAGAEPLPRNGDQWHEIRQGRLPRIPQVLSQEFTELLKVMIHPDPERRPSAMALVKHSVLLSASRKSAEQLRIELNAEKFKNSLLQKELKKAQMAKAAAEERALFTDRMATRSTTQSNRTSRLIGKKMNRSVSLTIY

[9] = molecular target: Tyrosine-protein kinase ABL2 (Homo sapiens, UniProt P42684)
Tyrosine-protein kinase ABL2, sequence (P42684 whole entry, canonical isoform): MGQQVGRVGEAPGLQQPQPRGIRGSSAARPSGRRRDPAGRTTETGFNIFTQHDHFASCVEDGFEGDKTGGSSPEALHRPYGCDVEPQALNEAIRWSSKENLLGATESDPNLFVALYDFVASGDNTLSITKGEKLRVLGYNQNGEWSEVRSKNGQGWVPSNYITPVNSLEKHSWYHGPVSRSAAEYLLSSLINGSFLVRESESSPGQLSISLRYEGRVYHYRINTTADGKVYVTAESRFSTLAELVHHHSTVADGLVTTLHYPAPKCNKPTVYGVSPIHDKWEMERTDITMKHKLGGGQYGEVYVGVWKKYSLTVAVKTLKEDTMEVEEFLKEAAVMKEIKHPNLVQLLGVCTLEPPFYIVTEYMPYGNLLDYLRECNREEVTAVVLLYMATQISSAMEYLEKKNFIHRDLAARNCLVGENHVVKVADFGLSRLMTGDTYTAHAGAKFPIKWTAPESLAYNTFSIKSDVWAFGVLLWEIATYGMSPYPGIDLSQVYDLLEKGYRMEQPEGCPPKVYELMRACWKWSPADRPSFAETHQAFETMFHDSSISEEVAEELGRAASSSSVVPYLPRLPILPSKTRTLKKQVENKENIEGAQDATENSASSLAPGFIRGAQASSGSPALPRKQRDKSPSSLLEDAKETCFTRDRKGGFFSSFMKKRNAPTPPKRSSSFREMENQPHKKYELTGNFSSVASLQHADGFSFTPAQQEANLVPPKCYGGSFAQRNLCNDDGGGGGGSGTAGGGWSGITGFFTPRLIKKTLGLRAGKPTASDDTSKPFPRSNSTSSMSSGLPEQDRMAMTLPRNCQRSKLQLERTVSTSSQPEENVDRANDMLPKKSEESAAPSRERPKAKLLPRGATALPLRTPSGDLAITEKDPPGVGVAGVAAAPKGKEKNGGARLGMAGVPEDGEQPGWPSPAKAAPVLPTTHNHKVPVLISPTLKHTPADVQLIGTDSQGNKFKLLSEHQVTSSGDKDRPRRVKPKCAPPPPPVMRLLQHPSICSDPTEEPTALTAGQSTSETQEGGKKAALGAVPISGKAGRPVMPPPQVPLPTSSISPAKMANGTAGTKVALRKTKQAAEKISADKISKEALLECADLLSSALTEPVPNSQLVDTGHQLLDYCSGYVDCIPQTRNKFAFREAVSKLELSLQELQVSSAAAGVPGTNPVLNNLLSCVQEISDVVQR

[10] = molecular target: Casein kinase I isoform alpha (Homo sapiens, UniProt P48729)
Casein kinase I isoform alpha, sequence (P48729 whole entry, canonical isoform): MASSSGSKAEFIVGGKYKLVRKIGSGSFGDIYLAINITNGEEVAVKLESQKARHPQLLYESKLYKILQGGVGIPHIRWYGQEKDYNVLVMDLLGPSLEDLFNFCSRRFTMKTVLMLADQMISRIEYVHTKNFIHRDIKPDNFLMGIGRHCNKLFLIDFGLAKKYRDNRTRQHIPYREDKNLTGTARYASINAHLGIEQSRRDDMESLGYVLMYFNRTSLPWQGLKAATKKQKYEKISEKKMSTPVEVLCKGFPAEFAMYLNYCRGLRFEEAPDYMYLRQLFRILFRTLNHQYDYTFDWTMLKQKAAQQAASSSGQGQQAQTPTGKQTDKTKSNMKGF

Protein kinase C delta type, sequence (Q05655 whole entry): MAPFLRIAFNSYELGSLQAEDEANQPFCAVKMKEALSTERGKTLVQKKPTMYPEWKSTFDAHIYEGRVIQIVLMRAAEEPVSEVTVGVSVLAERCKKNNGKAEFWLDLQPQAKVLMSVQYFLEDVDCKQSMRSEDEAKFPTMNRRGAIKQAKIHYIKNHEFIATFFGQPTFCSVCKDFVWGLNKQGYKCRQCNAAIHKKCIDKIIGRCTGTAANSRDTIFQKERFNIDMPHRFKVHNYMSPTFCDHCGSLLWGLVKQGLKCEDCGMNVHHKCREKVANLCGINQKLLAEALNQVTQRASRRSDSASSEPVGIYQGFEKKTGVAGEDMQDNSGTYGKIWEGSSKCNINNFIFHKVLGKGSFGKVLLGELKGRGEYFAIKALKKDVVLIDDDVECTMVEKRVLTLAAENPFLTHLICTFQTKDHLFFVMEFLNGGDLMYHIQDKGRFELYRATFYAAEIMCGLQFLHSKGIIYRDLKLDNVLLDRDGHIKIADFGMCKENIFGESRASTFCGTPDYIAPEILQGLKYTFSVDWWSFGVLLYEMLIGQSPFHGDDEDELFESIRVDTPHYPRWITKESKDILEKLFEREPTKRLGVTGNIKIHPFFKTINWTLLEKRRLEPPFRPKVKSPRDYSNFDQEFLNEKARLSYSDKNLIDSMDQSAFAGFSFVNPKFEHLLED
Tyrosine-protein kinase ABL1, sequence (P00519 whole entry): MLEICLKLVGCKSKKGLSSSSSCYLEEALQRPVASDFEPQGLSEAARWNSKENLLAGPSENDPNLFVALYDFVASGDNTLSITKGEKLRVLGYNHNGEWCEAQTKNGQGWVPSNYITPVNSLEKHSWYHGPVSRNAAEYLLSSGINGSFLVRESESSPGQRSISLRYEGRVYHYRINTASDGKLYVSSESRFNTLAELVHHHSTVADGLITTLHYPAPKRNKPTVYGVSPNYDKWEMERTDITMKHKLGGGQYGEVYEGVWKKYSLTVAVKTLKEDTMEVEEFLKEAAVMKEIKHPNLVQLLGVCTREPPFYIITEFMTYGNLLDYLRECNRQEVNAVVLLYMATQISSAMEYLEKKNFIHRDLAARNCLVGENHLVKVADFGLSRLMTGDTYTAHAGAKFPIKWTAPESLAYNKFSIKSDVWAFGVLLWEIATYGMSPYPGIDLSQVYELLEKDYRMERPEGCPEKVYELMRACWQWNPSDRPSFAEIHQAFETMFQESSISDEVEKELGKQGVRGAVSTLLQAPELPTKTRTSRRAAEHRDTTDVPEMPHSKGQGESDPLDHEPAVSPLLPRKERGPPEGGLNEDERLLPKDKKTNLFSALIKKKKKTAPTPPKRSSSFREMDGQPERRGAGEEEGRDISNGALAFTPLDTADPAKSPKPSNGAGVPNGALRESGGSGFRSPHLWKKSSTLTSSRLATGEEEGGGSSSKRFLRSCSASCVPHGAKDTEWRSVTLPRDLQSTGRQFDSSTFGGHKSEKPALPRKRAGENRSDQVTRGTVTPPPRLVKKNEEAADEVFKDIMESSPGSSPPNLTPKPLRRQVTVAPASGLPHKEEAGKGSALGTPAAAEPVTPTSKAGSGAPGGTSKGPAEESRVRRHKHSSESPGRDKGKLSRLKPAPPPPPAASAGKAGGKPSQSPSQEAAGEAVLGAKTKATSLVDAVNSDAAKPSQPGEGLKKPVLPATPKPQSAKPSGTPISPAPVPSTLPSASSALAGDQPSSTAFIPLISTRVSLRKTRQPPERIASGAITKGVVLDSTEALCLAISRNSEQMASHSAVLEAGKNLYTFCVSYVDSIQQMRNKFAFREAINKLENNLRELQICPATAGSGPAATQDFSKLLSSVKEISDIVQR

| Kd [1] | Kd [2] | Kd [3] | Kd [4] | Kd [5] | Kd [6] | Kd [7] | Kd (Activin receptor type-1B) | Kd [8] | Kd (Wee1-like protein kinase) | Kd [9] | Kd [10] | SMILES |
| --- | --- | --- | --- | --- | --- | --- | --- | --- | --- | --- | --- | --- |
| 0.128 µM (active) | 1.74 µM (active) | > 30 µM (inactive) | 0.712 µM (active) | 1.72 µM (active) | > 30 µM (inactive) | > 30 µM (inactive) | > 30 µM (inactive) | > 30 µM (inactive) | > 30 µM (inactive) | 0.04 µM (active) | 1.37 µM (active) | COc1cccc(Nc2ncnn3ccc(CN4CC[C@@H](N)[C@H](O)C4)c23)c1 [BMS-690514] |
| 10.7 µM (active) | > 30 µM (inactive) | > 30 µM (inactive) | > 30 µM (inactive) | > 30 µM (inactive) | > 30 µM (inactive) | > 30 µM (inactive) | > 30 µM (inactive) | > 30 µM (inactive) | > 30 µM (inactive) | 1.03 µM (active) | > 30 µM (inactive) | Cc1cc(-c2cc(OC(=O)c3ccccc3)ccc2Cl)cc2nnc(Nc3ccc(OCCN4CCCC4)cc3)nc12 [TG100-801] |
| > 30 µM (inactive) | 0.795 µM (active) | > 30 µM (inactive) | > 30 µM (inactive) | > 30 µM (inactive) | > 30 µM (inactive) | > 30 µM (inactive) | > 30 µM (inactive) | > 30 µM (inactive) | > 30 µM (inactive) | > 30 µM (inactive) | > 30 µM (inactive) | CCN1CCN(Cc2ccc(Nc3ncc(F)c(-c4cc(F)c5nc(C)n(C(C)C)c5c4)n3)nc2)CC1 [ABEMACICLIB] |
| > 30 µM (inactive) | > 30 µM (inactive) | > 30 µM (inactive) | > 30 µM (inactive) | > 30 µM (inactive) | > 30 µM (inactive) | > 30 µM (inactive) | > 30 µM (inactive) | > 30 µM (inactive) | > 30 µM (inactive) | > 30 µM (inactive) | > 30 µM (inactive) | FC(F)(F)c1ccc(CNc2ccc(Cc3c[nH]c4ncc(Cl)cc34)cn2)cn1 [PEXIDARTINIB] |
| 0.918 µM (active) | > 30 µM (inactive) | > 30 µM (inactive) | > 30 µM (inactive) | > 30 µM (inactive) | > 30 µM (inactive) | > 30 µM (inactive) | > 30 µM (inactive) | > 30 µM (inactive) | > 30 µM (inactive) | 4.06 µM (active) | > 30 µM (inactive) | Cc1cc(C(=O)Nc2cc(Oc3ccc4nc(NC(=O)C5CC5)cn4n3)ccc2C)n(C)n1 [TAK-593] |
| > 30 µM (inactive) | > 30 µM (inactive) | > 30 µM (inactive) | > 30 µM (inactive) | > 30 µM (inactive) | > 30 µM (inactive) | > 30 µM (inactive) | > 30 µM (inactive) | > 30 µM (inactive) | > 30 µM (inactive) | > 30 µM (inactive) | > 30 µM (inactive) | Cn1c(=O)c(F)c(Nc2ccc(I)cc2F)c2c(=O)n(C[C@@H](O)CO)cnc21 [TAK-733] |
| > 30 µM (inactive) | > 30 µM (inactive) | > 30 µM (inactive) | > 30 µM (inactive) | > 30 µM (inactive) | > 30 µM (inactive) | > 30 µM (inactive) | > 30 µM (inactive) | > 30 µM (inactive) | > 30 µM (inactive) | > 30 µM (inactive) | > 30 µM (inactive) | C=CC(=O)Nc1cccc(Nc2nc(Nc3ccc(N4CCN(C(C)=O)CC4)cc3OC)ncc2C(F)(F)F)c1 [ROCILETINIB] |
| > 30 µM (inactive) | > 30 µM (inactive) | > 30 µM (inactive) | > 30 µM (inactive) | > 30 µM (inactive) | > 30 µM (inactive) | > 30 µM (inactive) | 0.549 µM (active) | > 30 µM (inactive) | > 30 µM (inactive) | > 30 µM (inactive) | > 30 µM (inactive) | COc1cccc2cc(-c3nc([C@H]4CC[C@H](C(=O)O)CC4)n4ncnc(N)c34)[nH]c12 [OSI-027] |
| 0.842 µM | 0.067 µM (active) | > 30 µM (inactive) | > 30 µM (inactive) | > 30 µM (inactive) | > 30 µM (inactive) | > 30 µM (inactive) | > 30 µM (inactive) | > 30 µM (inactive) | > 30 µM (inactive) | 7.07 µM (active) | > 30 µM (inactive) | CC[C@@](C)(Nc1ccnc(-c2c[nH]c3ncccc23)n1)C(=O)NCC(F)(F)F [DECERNOTINIB] |
| > 30 µM (inactive) | > 30 µM (inactive) | > 30 µM (inactive) | > 30 µM (inactive) | > 30 µM (inactive) | > 30 µM (inactive) | > 30 µM (inactive) | > 30 µM (inactive) | > 30 µM (inactive) | > 30 µM (inactive) | > 30 µM (inactive) | > 30 µM (inactive) | CCc1cc2c(cc1N1CCC(N3CCOCC3)CC1)C(C)(C)c1[nH]c3cc(C#N)ccc3c1C2=O [ALECTINIB] |
| > 30 µM (inactive) | > 30 µM (inactive) | > 30 µM (inactive) | > 30 µM (inactive) | > 30 µM (inactive) | > 30 µM (inactive) | > 30 µM (inactive) | > 30 µM (inactive) | 1.53 µM (active) | > 30 µM (inactive) | > 30 µM (inactive) | > 30 µM (inactive) | COc1cc(Nc2ncc(F)c(Nc3ccc4c(n3)N(COP(=O)(O)O)C(=O)C(C)(C)O4)n2)cc(OC)c1OC [FOSTAMATINIB] |

| SMILES | Kd [1] | Kd [2] | Kd [3] | Kd [4] | Kd [5] | Kd [6] | Kd [7] | Kd (Activin receptor type-1B) | Kd [8] | Kd (Wee1-like protein kinase) | Kd [9] | Kd [10] |
| --- | --- | --- | --- | --- | --- | --- | --- | --- | --- | --- | --- | --- |
| CN1CCN(c2nc(C3=C(c4c[nH]c5ccccc45)C(=O)NC3=O)c3ccccc3n2)CC1 [SOTRASTAURIN] | > 30 µM (inactive) | 0.005 µM (active) | > 30 µM (inactive) | > 30 µM (inactive) | > 30 µM (inactive) | > 30 µM (inactive) | > 30 µM (inactive) | > 30 µM (inactive) | > 30 µM (inactive) | > 30 µM (inactive) | > 30 µM (inactive) | > 30 µM (inactive) |
| COCCN1CCN(Cc2ccc(-c3n[nH]c4c3C(=O)c3c(NC(=O)NN5CCOCC5)cccc3-4)cc2)CC1 [RGB-286638] | > 30 µM (inactive) | > 30 µM (inactive) | > 30 µM (inactive) | > 30 µM (inactive) | > 30 µM (inactive) | > 30 µM (inactive) | > 30 µM (inactive) | > 30 µM (inactive) | 0.37 µM (active) | > 30 µM (inactive) | > 30 µM (inactive) | 8.07 µM (active) |
